# According to paper PMC7696671, “P2Y2 and P2X4 Receptors Mediate Ca^2+ Mobilization in DH82 Canine Macrophage Cells” (International Journal of Molecular Sciences, 2020):
# Key:
# Assay type in all cases: cell-based
# P2Y2 receptor [1] = molecular target: T1, P2Y2 receptor (Canis lupus, UniProt A0A8I3MZ62); test: Fura-2 Ca2+ assay in DH82 cells, inhibition of the response to […] UTP (peak)
# T1 construct: gene P2RY2; endogenous receptor in DH82 canine macrophage cells
# P2Y2 receptor [2] = molecular target: T1, P2Y2 receptor; test: Fura-2 Ca2+ assay in DH82 cells, agonist peak response; blocked by AR-C118925 in Ca2+-free solution
# P2Y2 receptor [3] = molecular target: T1, P2Y2 receptor; test: Fura-2 Ca2+ assay in DH82 cells, agonist peak response
# T1 sequence (A0A8I3MZ62 1-377): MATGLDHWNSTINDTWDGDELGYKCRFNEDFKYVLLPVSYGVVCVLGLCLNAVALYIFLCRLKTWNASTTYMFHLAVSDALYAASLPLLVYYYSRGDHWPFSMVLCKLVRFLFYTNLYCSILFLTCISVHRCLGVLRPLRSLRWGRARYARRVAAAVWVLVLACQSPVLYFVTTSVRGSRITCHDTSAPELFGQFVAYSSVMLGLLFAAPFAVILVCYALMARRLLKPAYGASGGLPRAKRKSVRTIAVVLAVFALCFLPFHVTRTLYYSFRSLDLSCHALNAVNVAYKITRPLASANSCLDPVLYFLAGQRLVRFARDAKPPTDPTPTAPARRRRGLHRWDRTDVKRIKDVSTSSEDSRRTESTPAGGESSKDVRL
SMILES,IC50 (P2Y2 receptor [1]),further results
Cc1ccc2c(c1)C=Cc1cc(C)ccc1C2c1cn(Cc2ccc(C(=O)Nc3nn[nH]n3)o2)c(=O)[nH]c1=S [AR-C118925],6.61 ± 0.09 pIC50,–
Nc1ncnc2c1ncn2[C@@H]1O[C@H](COP(=O)(O)OP(=O)(O)OP(=O)(O)O)[C@@H](O)[C@H]1O [ATP],–,Peak Ca^2+ Response / pEC50 (P2Y2 receptor [2]): 5.88 ± 0.05 pEC50
O=c1ccn([C@@H]2O[C@H](CO[P@@](=O)(O)O[P@@](=O)(O)OP(=O)(O)O)[C@@H](O)[C@H]2O)c(=O)[nH]1 [UTP],–,Peak Ca^2+ Response / pEC50 (P2Y2 receptor [3]): 6.16 ± 0.09 pEC50
Cc1ccc(C(=O)Nc2ccc(S(=O)(=O)O)c3cc(S(=O)(=O)O)cc(S(=O)(=O)O)c23)cc1NC(=O)c1cccc(NC(=O)Nc2cccc(C(=O)Nc3cc(C(=O)Nc4ccc(S(=O)(=O)O)c5cc(S(=O)(=O)O)cc(S(=O)(=O)O)c45)ccc3C)c2)c1 [suramin],3.70 ± 0.05 pIC50,–
